# Experimental data as given in PMC6475383 (Proceedings of the National Academy of Sciences of the …, 2019).
# Assays:
# [1] = test system: sheep erythrocytes; experiment: C3G patient serum-induced hemolysis of sheep erythrocytes; assay type: cell-based; conditions: 0.15 µM, 20% patient serum, EGTA
# [2] = test system: classical complement pathway; experiment: Wieslab classical pathway assay in human serum; assay type: biochemical; conditions: up to 100 µM
# [3] = test system: AP activation in plasma; experiment: LPS-induced AP activation in mice; assay type: in vivo, C57BL/6J mice; conditions: 30 mg/kg oral, 3.5 h after i.p. LPS
# [4] = test system: PNH erythrocytes; experiment: Ex vivo hemolysis of PNH erythrocytes
# [5] = test system: lectin complement pathway; experiment: Wieslab lectin pathway assay in human serum; assay type: biochemical; conditions: up to 100 µM
# [6] = test system: KRN/I-Ag7 serum transfer-induced arthritis; experiment: KRN arthritis model; assay type: in vivo, C57BL/6 mice
# [7] = test system: C3 convertase activity in serum of C3G patients; experiment: Inhibition of C3 cleavage in C3G patient serum; assay type: biochemical; conditions: patient serum mixed with normal human serum, Mg2+-EGTA
# [8] = test system: PNH erythrocytes; experiment: C3-opsonization of PNH erythrocytes; assay type: cell-based, human; conditions: acidified serum, 1 µM, flow cytometry
# [9] = test system: receptors, ion channels, kinases, and proteases; experiment: Broad assay panel; conditions: up to 10 µM
# [10] = test system: passive Heymann nephritis; experiment: Passive Heymann nephritis; assay type: in vivo, Sprague-Dawley rats; conditions: rats
# [11] = prophylactic and therapeutic dosing, end of study
smiles,measurement,setting,value
CCO[C@H]1CCN(Cc2c(OC)cc(C)c3[nH]ccc23)[C@H](c2ccc(C(=O)O)cc2)C1 [LNP023],C3G serum-induced hemolysis of sheep erythrocytes,[1],potently blocked hemolysis
same,inhibition of classical complement pathway activation,[2],no inhibition
same,complement activation in plasma (C3d/iC3b) after LPS,[3],effectively blocked complement activation
same,IC50,"[4]; Homo sapiens, Erythrocyte, 24 h, read-out: IC50 lysis of PNH erythrocytes",400 nM
same,extent of inhibition of hemolysis of PNH erythrocytes,"[4]; dose-response, acidified NHS, FACS",full inhibition
same,inhibition of lectin complement pathway activation,[5],no inhibition
same,disease protection,"[6]; mice, 60 mg/kg b.i.d. oral",Full disease protection
same,disease protection,"[6]; mice, 180 mg/kg b.i.d. oral",Full disease protection
same,overall clinical score,"[6]; mice, 20, 60, and 180 mg/kg b.i.d. oral",highly efficacious
same,"complement activation in the joints (Ba, C3d, C5a)","[6]; mice, all doses (20, 60, 180 mg/kg b.i.d.)",significantly inhibited complement activation
same,"joint histology: inflammatory cell infiltration, bone erosion, proteoglycan loss","[6]; mice, all treated animals, after 6 d of treatment",strongly blocked
same,C3 cleavage in C3G patient sera,[7],blocked abnormal C3 cleavage
same,C3 deposition on the surface of CD59-negative erythrocytes,[8],able to block C3 deposition
same,"effects in a broad assay panel of receptors, ion channels, kinases, and proteases",[9],no significant effects
same,glomerular C3 deposition,[10]; after compound treatment,near-complete inhibition of complement activation
same,glomerulopathy,[10]; [11],greatly attenuate
same,overall histopathology score,[10]; [11],significantly improve
same,tubular degeneration,[10]; [11],prevent tubular degeneration
same,disease progression after onset of proteinuria,[10]; therapeutic dosing from day 6,immediately halted further disease progression
